Measured values: the supplement of paper PMC11061612

Key:
[1] = tested on: SW684 (Other Solid Carcinomas); test: Bliss excess, mean over the matrix (fraction); higher = more synergy
Outline: (§1)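 After 24 hours at 37°C and 5% CO2 in 1536-well plates, cells in DMEM/F12 or RPMI plus 10% FBS received two-drug dose matrices for 72 hours. Viability came from CellTiter-Glo 2.0 luminescence and was scaled as inhibition, anchored at 0 by vehicle wells and at 1 by blank wells. Combination Emax is taken as the second-highest inhibition in the matrix, and Bliss excess as the observed combination effect less EA + EB − EA·EB, with EA and EB the single-agent effects.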

[2] = tested on: LOUCY (T-Lymphoblastic Leukemia); test: as above
Outline: as §1

[3] = tested on: RMG-I (Ovarian Carcinoma); test: as above
Outline: as §1

[4] = tested on: PANC-02-03 (Pancreatic Carcinoma); test: as above
Outline: as §1

[5] = tested on: LAMA-84 (Chronic Myelogenous Leukemia); test: as above
Outline: as §1

[6] = tested on: PC-14 (Lung Adenocarcinoma); test: as above
Outline: as §1

[7] = tested on: COLO-684 (Endometrial Carcinoma); test: as above
Outline: as §1

[8] = tested on: KYM-1 (Rhabdomyosarcoma); test: as above
Outline: as §1

[9] = tested on: CHL-1 (Melanoma); test: as above
Outline: as §1

[10] = tested on: NKM-1 (Acute Myeloid Leukemia); test: as above
Outline: as §1

[11] = tested on: NCI-H1755 (Lung Adenocarcinoma); test: as above
Outline: as §1

[12] = tested on: SK-MM-2 (Plasma Cell Myeloma); test: as above
Outline: as §1

[13] = tested on: OV-90 (Ovarian Carcinoma); test: as above
Outline: as §1

[14] = tested on: CML-T1 (Chronic Myelogenous Leukemia); test: as above
Outline: as §1

[15] = tested on: FLO-1 (Esophageal Adenocarcinoma); test: as above
Outline: as §1

[16] = tested on: EB-3 (Burkitt's Lymphoma); test: as above
Outline: as §1

[17] = tested on: HCC-44 (Lung Adenocarcinoma); test: as above
Outline: as §1

[18] = tested on: KYSE-70 (Esophageal Squamous Cell Carcinoma); test: as above
Outline: as §1

[19] = tested on: NCI-H810 (Non-Small Cell Lung Carcinoma); test: as above
Outline: as §1

[20] = tested on: Becker (Low Grade Glioma); test: as above
Outline: as §1

[21] = tested on: SW684 (Other Solid Carcinomas); test: combination Emax (second highest fraction inhibited in the dose matrix, 72 h); higher = more inhibition; extreme values may be limits of the assay
Outline: as §1

[22] = tested on: LOUCY (T-Lymphoblastic Leukemia); test: as above
Outline: as §1

[23] = tested on: RMG-I (Ovarian Carcinoma); test: as above
Outline: as §1

[24] = tested on: PANC-02-03 (Pancreatic Carcinoma); test: as above
Outline: as §1

[25] = tested on: LAMA-84 (Chronic Myelogenous Leukemia); test: as above
Outline: as §1

[26] = tested on: PC-14 (Lung Adenocarcinoma); test: as above
Outline: as §1

[27] = tested on: COLO-684 (Endometrial Carcinoma); test: as above
Outline: as §1

[28] = tested on: KYM-1 (Rhabdomyosarcoma); test: as above
Outline: as §1

[29] = tested on: CHL-1 (Melanoma); test: as above
Outline: as §1

[30] = tested on: NKM-1 (Acute Myeloid Leukemia); test: as above
Outline: as §1

[31] = tested on: NCI-H1755 (Lung Adenocarcinoma); test: as above
Outline: as §1

[32] = tested on: SK-MM-2 (Plasma Cell Myeloma); test: as above
Outline: as §1

[33] = tested on: OV-90 (Ovarian Carcinoma); test: as above
Outline: as §1

[34] = tested on: CML-T1 (Chronic Myelogenous Leukemia); test: as above
Outline: as §1

[35] = tested on: FLO-1 (Esophageal Adenocarcinoma); test: as above
Outline: as §1

[36] = tested on: EB-3 (Burkitt's Lymphoma); test: as above
Outline: as §1

[37] = tested on: HCC-44 (Lung Adenocarcinoma); test: as above
Outline: as §1

[38] = tested on: KYSE-70 (Esophageal Squamous Cell Carcinoma); test: as above
Outline: as §1

[39] = tested on: NCI-H810 (Non-Small Cell Lung Carcinoma); test: as above
Outline: as §1

[40] = tested on: Becker (Low Grade Glioma); test: as above
Outline: as §1
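For Bliss excess, mean over the matrix in this document: after 72 h of two-drug dosing.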

| Compound | Bliss excess [1] | Bliss excess [2] | Bliss excess [3] | Bliss excess [4] | Bliss excess [5] | Bliss excess [6] | Bliss excess [7] | Bliss excess [8] | Bliss excess [9] | Bliss excess [10] | Bliss excess [11] | Bliss excess [12] | Bliss excess [13] | Bliss excess [14] | Bliss excess [15] | Bliss excess [16] | Bliss excess [17] | Bliss excess [18] | Bliss excess [19] | Bliss excess [20] | combination Emax [21] | combination Emax [22] | combination Emax [23] | combination Emax [24] | combination Emax [25] | combination Emax [26] | combination Emax [27] | combination Emax [28] | combination Emax [29] | combination Emax [30] | combination Emax [31] | combination Emax [32] | combination Emax [33] | combination Emax [34] | combination Emax [35] | combination Emax [36] | combination Emax [37] | combination Emax [38] | combination Emax [39] | combination Emax [40] |
| --- | --- | --- | --- | --- | --- | --- | --- | --- | --- | --- | --- | --- | --- | --- | --- | --- | --- | --- | --- | --- | --- | --- | --- | --- | --- | --- | --- | --- | --- | --- | --- | --- | --- | --- | --- | --- | --- | --- | --- | --- |
| O=C(c1cc(Cc2n[nH]c(=O)c3ccccc23)ccc1F)N1CCN(C(=O)C2CC2)CC1 [Olaparib] + Cc1c2c(nn1C)CSCc1cc(n(C)n1)CSc1cc(c3ccccc3c1)OCCCc1c(C(=O)O)n(C)c3c-2c(Cl)ccc13 [AZD5991] (first compound max 10 µM, 7x7, partner max 1 µM) | -0.0763 | -0.0086 | -0.0627 | -0.0465 | -0.0136 | -0.0279 | -0.0104 | 0.0435 | -0.0174 | 0.0786 | -0.0215 | -0.0093 | -0.0554 | -0.0255 | -0.0102 | -0.0579 | -0.0267 | -0.032 | -0.0578 | -0.0125 | 0.0699 | 0.234 | 0.123 | 0.128 | 0.223 | 0.0956 | 0.224 | 0.832 | 0.312 | 1 | 0.18 | 0.111 | 0.114 | 0.832 | 0.253 | 0.0218 | 0.117 | 0.104 | 0.49 | 0.22 |
| N#Cc1cnc(Nc2cc(NC[C@H]3CNCCO3)c(C(F)(F)F)cn2)cn1 [SRA737] + C=CCn1c(=O)c2cnc(Nc3ccc(N4CCN(C)CC4)cc3)nc2n1-c1cccc(C(C)(C)O)n1 [AZD1775] (first compound max 10 µM, partner max 1 µM) | -0.0677 | 0.138 | -0.0477 | -0.0172 | 0.0718 | 0.0602 | 0.0602 | 0.0382 | 0.0512 | 0.0732 | -0.0377 | 0.0284 | -0.0401 | 0.0611 | -0.0189 | 0.0314 | 0.0685 | 0.0613 | 0.0718 | 0.176 | 0.277 | 1 | 0.35 | 0.42 | 0.943 | 0.882 | 0.864 | 0.947 | 0.837 | 0.976 | 0.77 | 0.452 | 0.425 | 1 | 0.803 | 0.798 | 0.732 | 0.561 | 0.81 | 0.705 |
| N#Cc1cnc(Nc2cc(NC[C@H]3CNCCO3)c(C(F)(F)F)cn2)cn1 [SRA737] + CCc1c2c(nc3ccc(O)cc13)-c1cc3c(c(=O)n1C2)COC(=O)[C@]3(O)CC [SN-38] (first compound max 10 µM, 7x7, partner max 0.3 µM) | -0.0846 | 0.102 | -0.0426 | -0.0673 | -0.023 | 0.0164 | 0.0144 | -0.0207 | 0.0724 | -0.0365 | -0.0327 | 0.014 | -0.0976 | -0.0022 | 0.0593 | -0.0157 | 0.124 | 0.0857 | 0.0918 | -0.0297 | 0.459 | 0.952 | 0.484 | 0.674 | 0.953 | 0.816 | 0.878 | 0.945 | 0.807 | 0.995 | 0.871 | 0.776 | 0.519 | 1 | 0.815 | 0.828 | 0.904 | 0.683 | 0.829 | 0.865 |
| N#Cc1cnc(Nc2cc(NC[C@H]3CNCCO3)c(C(F)(F)F)cn2)cn1 [SRA737] + Nc1ccn([C@@H]2O[C@H](CO)[C@@H](O)C2(F)F)c(=O)n1 [Gemcitabine] (first compound max 10 µM, 7x7, partner max 0.3 µM) | 0.0294 | 0.127 | -0.042 | 0.0122 | 0.039 | 0.0155 | -0.0824 | -0.0294 | 0.0859 | 0.0289 | 0.0184 | 0.112 | -0.0752 | 0.0539 | 0.124 | 0.125 | 0.149 | 0.0297 | 0.112 | 0.0323 | 0.494 | 0.96 | 0.402 | 0.595 | 0.973 | 0.806 | 0.657 | 1 | 0.803 | 1 | 0.775 | 0.708 | 0.609 | 1 | 0.908 | 0.806 | 0.853 | 0.643 | 0.779 | 0.747 |
| N#Cc1cnc(Nc2cc(NC[C@H]3CNCCO3)c(C(F)(F)F)cn2)cn1 [SRA737] + O=c1[nH]cc(F)c(=O)[nH]1 [5-Fluorouracil] (first compound max 10 µM, 7x7, partner max 20 µM) | -0.0315 | -0.0122 | -0.0735 | 0.0463 | -0.057 | -0.0109 | -0.0334 | -0.0559 | -0.0351 | -0.0812 | 0.0078 | -0.034 | -0.0306 | -0.0498 | 0.0266 | -0.0561 | 0.125 | -0.0214 | -0.0924 | 0.0222 | 0.273 | 0.911 | 0.106 | 0.407 | 0.913 | 0.696 | 0.644 | 0.927 | 0.494 | 0.919 | 0.679 | 0.473 | 0.247 | 0.994 | 0.803 | 0.624 | 0.861 | 0.196 | 0.427 | 0.644 |
| Cc1nc(-c2cn3c(n2)-c2ccc(-c4cnn(C(C)(C)C(N)=O)c4)cc2OCC3)n(C(C)C)n1 [Taselisib] + O=C(Nc1ccc2[nH]nc(-c3ccncc3)c2c1)[C@@H]1CCN(CC(=O)N2CCN(c3ccc(-c4ncccn4)cc3)CC2)C1 [SCH772984] (first compound max 10 µM, 7x7, partner max 5 µM) | 0.0283 | 0.0209 | -0.0455 | 0.126 | 0.11 | 0.133 | -0.0183 | 0.0003 | 0.0652 | 0.0911 | 0.0655 | 0.0166 | 0.0451 | 0.0342 | 0.115 | 0.0114 | 0.0906 | 0.0674 | -0.0601 | 0.0868 | 0.823 | 0.627 | 0.599 | 0.906 | 0.999 | 0.973 | 0.63 | 0.671 | 0.575 | 1 | 0.991 | 0.349 | 0.827 | 0.493 | 0.737 | 0.493 | 0.983 | 0.686 | 0.104 | 0.757 |
| CC1(C)CCC(CN2CCN(c3ccc(C(=O)NS(=O)(=O)c4ccc(NCC5CCOCC5)c([N+](=O)[O-])c4)c(Oc4cnc5[nH]ccc5c4)c3)CC2)=C(c2ccc(Cl)cc2)C1 [Venetoclax] + CS(=O)(=O)CCNCc1ccc(-c2ccc3ncnc(Nc4ccc(OCc5cccc(F)c5)c(Cl)c4)c3c2)o1 [Lapatinib] (first compound max 1 µM, 7x7, partner max 10 µM) | -0.0757 | 0.0911 | 0.0483 | -0.0113 | -0.0046 | -0.013 | -0.0236 | -0.0027 | 0.0208 | 0.108 | -0.031 | 0.0104 | -0.0522 | 0.0154 | -0.0279 | -0.0478 | -0.0326 | -0.0418 | -0.065 | -0.0179 | 0.112 | 1 | 0.493 | 0.294 | 0.182 | 0.909 | 0.343 | 0.291 | 0.528 | 0.764 | 0.262 | 1 | 0.149 | 0.539 | 0.318 | 0.568 | 0.226 | 0.145 | 0.181 | 0.147 |
